Data reported in PMC12261233, “Photoactivatable Cyclometalated Ir(III) Compound Penetrates the Blood-Brain Barrier in 3D Spheroidal and Advanced 3D Organoid Models of Inherently Resistant and Aggressive Brain Tumors” (ACS Pharmacology & Translational Science, 2025).
Read-outs that look alike come from different tables or passages of the source.

Legend:
[1] = system: U87MG spheroids; assay: Calcein AM/PPI staining of Matrigel-embedded spheroids after single-spheroid 405 nm irradiation (confocal); type: cell-based, human; details: for change in calcein AM/PPI ratio with blue light irradiation: 405 nm irradiated; for change in calcein AM/PPI ratio under dark conditions: versus control
Protocol: Spheroids were treated with iridium complexes at IC50 concentrations (Table S4) for 3 h, followed by 405 nm laser irradiation for 60 s. After 24 h in a drug-free medium, spheroids were stained for analysis. Significant differences in live and dead cell counts were observed between irradiated and nonirradiated samples for Ir3 and Ir4, with morphological disruptions noted in treated spheroids, including reduced diameters and metabolically active cells concentrated in the core (Figure , panel III, inserts 2* and 4*).
Matrigel-embedded spheroids were treated for 3 h with the investigated compounds at concentrations corresponding to the IC50 determined for 3D cultures. Then, the samples were irradiated for 60 s with 405 nm laser light (1 mW) and placed in a drug-free, 3D forming medium for an additional 21 h. Then, treated and irradiated (or dark incubated controls) were stained with Hoechst 33258 (20 μg mL^–1), Calcein AM (2 μM), and PPI (8 μg mL^–1) for 2 h. Samples were sequentially imaged on a confocal microscope Leica CM SP5 (Leica, Germany), in 10 z-stack scans (20 μm each). Images were processed using ImageJ software. Fluorescence intensities were assessed for the maximal projections of the z-stacks, and the corresponding Calcein AM/PPI ratio was calculated. Hoechst dye was used to accurately define the Region of Interest (ROI) mask and analyze fluorescence intensities. Three independent experiments were carried out to ensure the reliability and reproducibility of the results. The representative images are shown.

[2] = system: U87MG spheroids; assay: Antiproliferative activity, 3D spheroids, CellTiter-Glo 3D assay; type: cell-based, human; details: for PI (phototoxicity index) 3D: IC50 dark / IC50 420 nm irradiated; for IC50: U87MG 3D spheroids, 90 min treatment, CellTiter-Glo 3D; for TMI (3D/2D): ratio of IC50 for 3D and 2D models under irradiation
Protocol: The antiproliferative activity of the compounds under investigation was assessed using the Sulforhodamine B (SRB) assay on both 2D cell monolayers and 3D spheroids. For the 2D cell monolayer assay, cells were seeded in 96-well tissue culture plates at a density of 3 × 10^3 cells/well in 100 μL of culture medium. Following overnight incubation in a humidified CO2 incubator, the medium was replaced, and the cells were treated with the investigated compounds in a final volume of 200 μL/well of Earle’s Balanced Salt Solution (EBSS). The cells were then exposed to the tested compounds for 1.5 h under dark conditions (5% CO2, 37 °C) and subsequently irradiated with blue light (420 nm) for 30 min at an intensity of 58 W/m^2. After treatment, the samples were washed with Phosphate-Buffered Saline (PBS) and replenished with 200 μL of culture medium. Following an additional 70-h incubation, the cells were washed with PBS, fixed with trichloroacetic acid at 4 °C for 1 h, and stained with 0.4% SRB dye for 30 min. The stained cells were dissolved with Tris (10 mM), and the cell viability was assessed by measuring the absorbance at 570 nm using an Absorbance Reader (SPARK TECAN, SCHOELLER). The absorbance readings were then converted to the percentage of control (% cell survival), and the antiproliferative effects were expressed as IC50 values, which were calculated from curves plotting cell survival (%) versus drug concentration (μM) (IC50 = the concentration of the agent that inhibits cell growth by 50%). For experiments with 3D spheroids, 2500 single cells/well were seeded on ultralow attachment U-shape 96-well plates (Corning, USA) and cultured for 72 h in 3D forming medium DMEM-F12 ham medium supplemented with growth and spheroid forming factors: 2% B27 (Thermo Fisher Scientific Inc., MA, USA), epidermal growth factor (EGF; Sigma-Aldrich, Germany, 20 ng mL^–1), fibroblast growth factor (FGF2; Sigma-Aldrich, Germany, 10 ng mL^–1), and BSA (0.15%). After the 72-h spheroid formation period, the samples were treated and irradiated as described for the 2D cultures. Subsequently, the samples were cultured in the 3D forming medium for an additional 70 h, and the antiproliferative potency of the tested compounds against spheroids was determined by assessing changes in IC50 values using the CellTiterGlo-3D assay (Promega). The luminescence signal was detected using the plate reader SPARK (Tecan, Manedorf, Switzerland), and the IC50 values were calculated from the survival curves. All experiments were conducted in triplicate to ensure the reliability and reproducibility of the results. Furthermore, the concentrations of the compounds in the medium during the treatment were verified using Flame Atomic Absorption Spectroscopy (FAAS) or Inductively Coupled Plasma Mass Spectrometry (ICP-MS).
The antiproliferative activity (IC50 valuesa) of the investigated compounds determined in 2D and 3D models of U87MG cellsb
Dark Irradiated PId Dark Irradiated PIe (3D/2D) […]
a Concentration that causes 50% inhibition of cell proliferation. b Cell monolayer or generated 3D spheroids were treated for 90 min with increasing concentrations of the investigated compounds, followed by 30 min of irradiation with blue light (420 nm; 58 Wm-2) and 70 h of drug-free incubation. c IC50 values were determined by SRB assay. d IC50 values were determined by CellTiter-Glo® 3D chemiluminescent assay. e PI - phototoxicity index was calculated as the ratio of IC50 determined under the dark conditions / IC50 determined for 420 […]
f TMI – tissue-mass index was calculated as the ratio of IC50 values determined for 3D and 2D models under irradiation conditions.

[3] = dark, 70 h drug-free, read-out: IC50 3D Dark
[4] = 30 min blue light 420 nm 58 W m-2, 70 h drug-free, read-out: IC50 3D Irradiated

Row | IC50 ([2]; Homo sapiens, U-87 MG, light or radiation study, 30 min blue light 420 nm 58 W m-2, 70 h drug-free, read-out: IC50 3D Irradiated) [µM] | IC50 ([2]; Homo sapiens, U-87 MG, dark, 70 h drug-free, read-out: IC50 3D Dark) [µM] | Compound | change in calcein AM/PPI ratio with blue light irradiation [1] | change in calcein AM/PPI ratio under dark conditions [1] | PI (phototoxicity index) 3D [2] | IC50 [2, 3] [µM] | IC50 [2, 4] [µM] | TMI (3D/2D) [2]
1 |  |  | Cc1ccc(-c2cc3[n+]4c(c2)-c2cccc[n+]2[Ir-3]42([Cl])([c]4cc5ccccc5cc4-c4n(Cc5ccc(C(F)(F)F)cc5)c5ccccc5[n+]42)[n+]2ccccc2-3)cc1.F[P-](F)(F)(F)(F)F [Ir3] | substantial decrease | insignificant changes | 6.1 | 36.6 ± 4.5 | 6 ± 1 | 9.0
2 |  |  | CCCCn1c2[n+](c3cc(C(=O)OC)ccc31)[Ir-3]13([Cl])([c]4ccccc4-2)[n+]2ccccc2-c2cc(-c4ccc(C)cc4)cc([n+]21)-c1cccc[n+]13.F[P-](F)(F)(F)(F)F [Ir4] | substantial decrease | significant decrease | 13.1 | 27.6 ± 4 | 2.1 ± 0.2 | 4
3 |  |  | Cc1ccc(-c2cc3[n+]4c(c2)-c2cccc[n+]2[Ir-3]42([Cl])([c]4c(ccc5c4OCO5)-c4n(Cc5ccc(C(F)(F)F)cc5)c5ccccc5[n+]42)[n+]2ccccc2-3)cc1.F[P-](F)(F)(F)(F)F [Ir5] | substantial decrease | insignificant changes | 4.5 | 32.3 ± 3.3 | 7.1 ± 0.8 | 16.9
4 | 95.3 ± 6.4 | ≥ 100 | Cn1nnc2c(C(N)=O)ncn2c1=O [Temozolomide, reference compound] |  |  |  |  |  | 
